According to ChEMBL document CHEMBL3739421, “Discovery of oxybisbenzoylamides as a new class of antimalarial agents” (Medchemcomm, 2015):
Calls of active or inactive are those of the source. The rule behind the calls is not given here.

Key:
Plasmodium falciparum [1] = experiment: Antimalarial activity against Chloroquine-sensitive Plasmodium falciparum D10 assessed as parasite growth inhibition after 72 hrs by lactate dehydrogenase assay; format: functional, organism-based; details: D10, 72 h
[2] = Therapeutic index, ratio of IC50 for HMEC1 cells to IC50 for Chloroquine-sensitive Plasmodium falciparum D10; format: cell-based; details: human; read-out: Ratio IC50
[3] = Therapeutic index, ratio of IC50 for human fibroblasts to IC50 for Chloroquine-resistant Plasmodium falciparum W2; details: read-out: Ratio IC50
[4] = Therapeutic index, ratio of IC50 for human fibroblasts to IC50 for Chloroquine-sensitive Plasmodium falciparum D10; details: read-out: Ratio IC50
Plasmodium falciparum [5] = experiment: Antimalarial activity against Chloroquine-resistant Plasmodium falciparum W2 assessed as parasite growth inhibition after 72 hrs by lactate dehydrogenase assay; format: functional, organism-based; details: W2, 72 h
[6] = molecular target: Plasmepsin II (Plasmodium falciparum) (UniProt P46925); experiment: Inhibition of Plasmodium falciparum recombinant PLM2 expressed in Escherichia coli BL21(DE3) pLysS cells using Lys-GluPhe-Val-Phe-NPhe-Ala-Leu-Lys as substrate at 1 uM by spectrophotometry
Chain of Plasmepsin II (Plasmodium falciparum) (P46925 125-453 limits assumed): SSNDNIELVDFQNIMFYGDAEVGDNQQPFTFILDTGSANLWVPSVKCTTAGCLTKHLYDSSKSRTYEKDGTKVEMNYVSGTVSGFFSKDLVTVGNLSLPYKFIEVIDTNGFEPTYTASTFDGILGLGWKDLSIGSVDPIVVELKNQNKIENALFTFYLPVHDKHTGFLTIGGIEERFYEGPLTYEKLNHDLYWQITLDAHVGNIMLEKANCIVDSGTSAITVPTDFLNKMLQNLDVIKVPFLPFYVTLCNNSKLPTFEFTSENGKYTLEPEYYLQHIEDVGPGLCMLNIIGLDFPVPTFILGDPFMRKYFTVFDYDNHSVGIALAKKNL

[7] = Cytotoxicity against human fibroblasts assessed as growth inhibition after 72 hrs by MTT assay; format: cell-based; details: Fibroblast
[8] = Inhibition of beta-haematin formation after 18 hrs by spectrophotometric analysis relative to haematin; format: physicochemical
[9] = Therapeutic index, ratio of IC50 for HMEC1 cells to IC50 for Chloroquine-resistant Plasmodium falciparum W2; format: cell-based; details: human; read-out: Ratio IC50
[10] = Cytotoxicity against human HMEC1 cells assessed as growth inhibition after 72 hrs by MTT assay; format: cell-based; details: HMEC-1, 72 h

| SMILES | IC50 (Plasmodium falciparum [1]) | IC50 (Plasmodium falciparum [5]) | inhibition [6] | IC50 [7] [µM] | IC50 [8] [equiv] | further results |
| --- | --- | --- | --- | --- | --- | --- |
| CCCCNC(=O)[C@H](CC(C)C)NC(=O)[C@@H](NC(=O)c1ccc(Oc2ccc(C(=O)N[C@@H](C)C(=O)NCCCNc3ccnc4cc(Cl)ccc34)cc2)cc1)[C@@H](C)CC | 0.043 µM | 0.039 µM | inactive | 18 | 0.79 | selectivity ratio [2]: 450; selectivity ratio [3]: 450; selectivity ratio [4]: 450; selectivity ratio [9]: 450; IC50 [10]: 17.6 µM |
| COc1cc(NC(C)CCCN)c2ncccc2c1 (stereo not drawn) [PRIMAQUINE] |  |  |  |  | > 10 |  |
| CCCCNC(=O)[C@H](CC(C)C)NC(=O)[C@@H](NC(=O)c1ccc(Oc2ccc(C(=O)N[C@@H](CC(C)C)C(=O)N[C@@H](C)C(=O)NCCCNc3ccnc4ccccc34)cc2)cc1)[C@@H](C)CC | 0.063 µM | 0.054 µM | inactive |  |  |  |
| CCN(CC)CCCC(C)Nc1ccnc2cc(Cl)ccc12 (stereo not drawn) [CHLOROQUINE] |  |  |  |  | 1.36 |  |
| CCCCNC(=O)[C@H](CC(C)C)NC(=O)[C@@H](NC(=O)c1ccc(Oc2ccc(C(=O)N[C@H](C(=O)N[C@@H](CC(C)C)C(=O)NCCCC)[C@@H](C)CC)cc2)cc1)[C@@H](C)CC | 1.98 µM | 1.62 µM |  |  |  |  |
| CCCCNC(=O)[C@H](CC(C)C)NC(=O)[C@@H](NC(=O)c1ccc(Oc2ccc(C(=O)N[C@@H](CC(C)C)C(=O)N[C@@H](C)C(=O)NCCCC(C)Nc3cc(OC)cc4cccnc34)cc2)cc1)[C@@H](C)CC (stereo partly drawn) | 0.037 µM | 0.104 µM | inactive |  | > 8 |  |
| CCN(CC)CCNC(=O)[C@H](CC(C)C)NC(=O)c1ccc(Oc2ccccc2)cc1 | > 5 µg/mL | > 5 µg/mL |  |  |  |  |
| CCCCNC(=O)[C@H](CC(C)C)NC(=O)[C@@H](NC(=O)c1ccc(Oc2ccc(C(=O)N[C@@H](CC(C)C)C(=O)NCCCN(CC)CC)cc2)cc1)[C@@H](C)CC | 0.121 µM | 0.103 µM |  | 16.3 |  | selectivity ratio [3]: > 100; selectivity ratio [4]: > 100 |
| CCCCNC(=O)[C@H](CC(C)C)NC(=O)[C@@H](NC(=O)c1ccc(Oc2ccc(C(=O)N[C@@H](CC(C)C)C(=O)N[C@@H](C)C(=O)NCCN(CC)CC)cc2)cc1)[C@@H](C)CC | 0.345 µM | 0.143 µM |  |  |  |  |
| CCCCNC(=O)[C@H](CC(C)C)NC(=O)c1ccc(Oc2ccc(C(=O)N[C@@H](CC(C)C)C(=O)NCCN(CC)CC)cc2)cc1 | 0.357 µM | 0.314 µM |  | 23 |  |  |
